Reference: PMC5075052, “Modulation of the Substitution Pattern of 5-Aryl-2-Aminoimidazoles Allows Fine-Tuning of Their Antibiofilm Activity Spectrum and Toxicity” (Antimicrobial Agents and Chemotherapy, 2016)
Like-named read-outs stand apart in the source and are kept apart here.

Experiments:
S. aureus SH1000 = test: Monospecies bacterial biofilm inhibition, static peg assay; assay type: cell-based, Staphylococcus aureus
Protocol: (§1) A static peg assay, described previously ([27], [74]), was used for bacterial biofilm formation. The Calgary biofilm device consists of a platform carrying 96 polystyrene pegs (Nunc no. 445497) that fits as a microtiter plate lid, with 1 peg hanging into each microtiter plate well (Nunc no. 269789). Twofold serial dilutions of the compounds (dissolved in 100% dimethyl sulfoxide [DMSO] or ethanol) in 100 μl liquid broth (TSB diluted 1/20) per well were prepared in the microtiter plate in duplicate or triplicate with a maximum concentration of 1,600 μM and a minimum concentration of 0.8 μM. Subsequently, an overnight culture of S. Typhimurium ATCC 14028, P. aeruginosa PA14, E. coli TG1, S. epidermidis, S. aureus SH1000, or S. aureus ATCC 6538 (all grown in LB) was diluted 1:100 into TSB diluted 1/20 (or TSB for S. epidermidis, S. aureus SH1000, and S. aureus ATCC 6538), whereas overnight cultures of S. liquefaciens MG44 and B. cepacia LMG1222T were diluted 1:50 into TSB diluted 1/20. P. gingivalis ATCC 33277 cultures were diluted in TSB diluted 1/20 to have a final concentration of 1 × 10^8 cells/ml. Next, 100 μl was added to each well of the microtiter plate, resulting in a total volume of 200 μl medium per well (final concentration range of compounds, 800 μM [2% DMSO or ethanol] to 0.4 μM [0.001% DMSO or ethanol]). In the next step, the pegged lid was placed on the microtiter plate and the plate was incubated for 24 h or 48 h at 25°C or 37°C without shaking. At 37°C, the plates were placed in a sealed container with wet towels on the bottom to prevent evaporation of the growth medium. Biofilms of P. gingivalis ATCC 33277 were grown anaerobically at 37°C for 72 h. During this incubation period, biofilms were formed on the surface of the pegs. After incubation, the optical density at 600 nm (OD600) for the planktonic cells in the microtiter plate was measured using a Synergy MX multimode reader (BioTek, Winooski, VT). This gives a first indication of the effect of the compounds on planktonic growth. For quantification of biofilm formation, the pegs were washed once in 200 μl PBS. The remaining attached bacteria were stained for 30 min with 200 μl 0.1% (wt/vol) crystal violet in an isopropanol-methanol-PBS solution (1:1:18, vol/vol). Excess stain was rinsed off by placing the pegs in a 96-well plate filled with 200 μl distilled water per well. After air drying of the pegs (30 min), the dye bound to the adherent biofilm was extracted with 30% glacial acetic acid (200 μl per well of a 96-well plate). The optical density at 570 nm (OD570) of each well was measured using a Synergy MX multimode reader (BioTek, Winooski, VT). The concentration of each compound needed to inhibit biofilm formation by 50% (BIC50) and the concentration of each compound needed to inhibit planktonic growth by 50% (IC50) were determined from the concentration gradient by using nonlinear curve fitting (GraphPad Prism software, version 5; GraphPad Software, Inc., La Jolla, CA). In the same assay, the effect on planktonic growth was evaluated. The activity was considered biofilm specific if the BIC50 was at least two times lower than the IC50. Data represent the means from at least 3 technical repeats with the corresponding 95% confidence intervals (provided in the supplemental material).

B. cepacia LMG1222T = test: as above; assay type: cell-based, Burkholderia cepacia; settings: Burkholderia cepacia, 25°C
Protocol: as §1

[1] = test system: S. Typhimurium ATCC 14028; test: as above; assay type: cell-based, Salmonella enterica serovar Typhimurium; settings: Salmonella enterica, S. Typhimurium ATCC 14028, 25°C
Protocol: as §1

P. gingivalis ATCC 33277 = test: Monospecies bacterial biofilm inhibition, static peg assay (anaerobic, 72 h); assay type: cell-based; settings: Porphyromonas gingivalis, ATCC33277, P. gingivalis ATCC 33277, 37°C
Protocol: as §1

[2] = test system: C. albicans SC5314 + S. epidermidis; test: Mixed C. albicans-S. epidermidis biofilm, selective plating CFU; assay type: cell-based, Candida albicans + Staphylococcus epidermidis; settings: 37°C
Protocol: Overnight cultures of C. albicans SC5314 (YPD) and S. epidermidis (TSB) were diluted in RPMI 1640 medium to OD600s of 0.05 and 0.01, respectively. Equal volumes of the cell suspensions of each organism were mixed before use. One hundred microliters of this mixed cell suspension together with compound was added to the wells of a round-bottom microtiter plate (TPP; Trasadingen, Switzerland) in triplicate. Concentrations of 25 μM (0.0625% DMSO or ethanol) and 100 μM (0.25% DMSO or ethanol) were tested. After 24 h of incubation at 37°C, the biofilms were washed with PBS and fresh medium with or without compounds was added. After a further incubation for 48 h at 37°C, the biofilms were washed with PBS, after which the cells were resuspended in 100 μl of PBS by scraping them off, sonicated (1 min, 45 kHz; USC300-T; VWR, Radnor, PA, USA), and vigorously pipetted up and down. Finally, the biofilm cells were diluted in PBS and plated on YPD agar plates containing 100 mg/liter ampicillin and TSA plates containing 25 mg/liter amphotericin B to determine the number of fungal and bacterial CFU, respectively, after 2 days of incubation at 37°C. The percentage of C. albicans SC5314 and S. epidermidis cells relative to the number of cells after DMSO or ethanol control treatment was determined.

[3] = Staphylococcus aureus, SH1000, S. aureus SH1000, 37°C, read-out: BIC50
[4] = Staphylococcus aureus, SH1000, S. aureus SH1000, 37°C, read-out: IC50 (planktonic growth)
[5] = read-out: IC50 (planktonic growth)
[6] = 25 μM compound, read-out: % CFU survival, C. albicans
[7] = 25 μM compound, read-out: % CFU survival, S. epidermidis
[8] = 100 μM compound, read-out: % CFU survival, C. albicans
[9] = 100 μM compound, read-out: % CFU survival, S. epidermidis

Compound | IC50 (S. aureus SH1000; [3]) | IC50 (S. aureus SH1000; [4]) | IC50 (B. cepacia LMG1222T; read-out: BIC50) | IC50 (B. cepacia LMG1222T; [5]) | IC50 ([1]; read-out: BIC50) | IC50 (P. gingivalis ATCC 33277; read-out: BIC50) | IC50 (P. gingivalis ATCC 33277; [5]) | IC50 (S. aureus SH1000; S. aureus SH1000, 37°C, read-out: BIC50) | % CFU survival, C. albicans ([2]; 25 μM compound) | % CFU survival, S. epidermidis ([2]; 25 μM compound) | activity at 25 µM [2, 6] | activity at 25 µM [2, 7] | activity at 100 µM [2, 8] | activity at 100 µM [2, 9] | % CFU survival, S. epidermidis ([2]; 100 μM compound) | IC50 [1, 5]
CCCCCn1c(-c2ccccc2)cnc1N [Compound 1] | 163 µM | > 400 µM | ~356 µM | > 400 µM | 48.4 µM | 13.2 µM | 32.1 µM |  |  |  |  |  |  |  |  | 
CCCCCCCCn1c(-c2ccc(Cl)cc2)cnc1N [Compound 2] | 2 to 6 µM | 8.3 µM | 145 µM | > 400 µM | ~5.9 µM | 3.9 µM | 6 µM | 3.4 µM | completely inhibited | completely inhibited | < 0.6% | 0% | < 0.2% | 0% |  | 
CC(C)CNc1ncc(-c2ccc(Cl)cc2)[nH]1 [Compound 3] | 200 µM | 175 µM | 88.1 µM | > 400 µM | 2 µM | 5.3 µM | 5.1 µM |  |  |  | 58.3% | 64.6% | 235% | 13.2% |  | 
CCCCNc1ncc(-c2ccc(Br)cc2)[nH]1 [Compound 4] | 66.5 µM | 89.4 µM | 189 µM | > 400 µM | 7.1 µM | 3.7 µM | 8.2 µM |  |  |  |  |  |  |  |  | 
Clc1ccc(-c2cnc(NC3CCCC3)[nH]2)cc1 [Compound 5] | 70.6 µM | 71.5 µM | 331 µM | > 400 µM | 4.4 µM | 5.7 µM | 4 µM |  |  |  | 168% | 72% | 595% | 2.3% | complete inhibition | 
Brc1ccc(-c2cnc(NCCn3cc(C4CC4)nn3)[nH]2)cc1 [Compound 6] | > 400 µM | > 400 µM | > 400 µM | > 400 µM | 2 µM | 18.1 µM | 19.5 µM |  |  |  |  |  |  |  |  | 2.4 µM
CCCCCCCCn1c(-c2ccccc2)cnc1NCC(C)C [Compound 8a] |  |  |  |  |  |  |  |  |  |  | 62.4% |  | 1% | 1% |  | 
CCCCCCCCn1c(-c2ccc(Cl)cc2)cnc1NCC(C)C [Compound 8b] |  |  |  |  |  |  |  |  |  |  | 2% | 6.1% | 18.2% | 0.7% |  | 
CCCCCCCCn1c(-c2ccc(Br)cc2)cnc1NCC(C)C [Compound 8c] |  |  |  |  |  |  |  |  |  |  | 3.2% | 637% | 8.4% | 966% |  | 
CCCCCCCCn1c(-c2ccc(Cl)c(Cl)c2)cnc1NCC(C)C [Compound 8d] |  |  |  |  |  |  |  |  |  |  | 2.5% |  | 1.4% |  |  | 
CCCCCCCCn1c(-c2ccccc2)cnc1NC1CCCC1 [Compound 8e] |  |  |  |  |  |  |  |  |  |  | 10% | 93.1% | 2.5% | 0% |  | 
CCCCCCCCn1c(-c2ccc(Cl)cc2)cnc1NC1CCCC1 [Compound 8f] |  |  |  |  |  |  |  |  |  |  | 2.9% | 2.5% | 7.2% | 0.3% |  | 
CCCCCCCCn1c(-c2ccc(Br)cc2)cnc1NC1CCCC1 [Compound 8g] |  |  |  |  |  |  |  |  |  |  | 3.3% | 0% | 5.9% | 0% |  | 
CCCCCCCCn1c(-c2ccc(Cl)c(Cl)c2)cnc1NC1CCCC1 [Compound 8h] |  |  |  |  |  |  |  |  |  |  | 6.7% | 2% | 3.5% | 2.2% |  | 
